Laboratory results taken from patent publication EP4268819A1 (priority 2022, dated 2023).
Read-outs that look alike come from different tables or passages of the source.

How the values were obtained:
icSARS-CoV-2-mNG [1] = format: cell-based, SARS-CoV-2
in vitro [2] = format: cell-based; settings: human, caco-2; IncuCyte; cell line not specified; read-out: level of growth inhibition (live-cell imaging, growth curves)
Text: For Analysis IncuCyte® S3 Software was used.

Calu-3 cells [3] = tested on: Calu-3 cells
Experimental: (§4) Calu-3 (40.000/well), Huh7.5 (10.000/well) and CaCo2 (10.000/well) cells were seeded in 96-well plates in DMEM-Media. The cells were treated with the drug compounds at the indicated concentrations, negative control (non-treated), DMSO control and positive control (50% DMSO treated) were added, and plates were then stored in the IncuCyte® at 37 °C, 5 % CO2 for 72h measuring every 3 hours cell confluency via phase channel with 10x objective. For Analysis IncuCyte® S3 Software was used.
(§5) Plates were then stored in the IncuCyte® measuring every 3 hours cell confluency.

in vitro [4] = settings: human, calu-3 cells, CC50 (IncuCyte), confluency every 3 hours for 72h
Experimental: as §4, §5

[5] = tested on: DENV type 2 reporter virus
[6] = tested on: DENV type 2 reporter virus; assay: microbe, parasite or virus in culture; settings: Dengue virus, Huh7.5, 24 h
[7] = CC50 calculation, MTT assay, Calu-3; format: cell-based; settings: human, Calu-3 cells
Experimental: (§1) The cells were treated with drug candidates at the indicated concentrations. Negative control (non-treated), DMSO control and positive control (100% DMSO treated) were added, and plates were then stored at 37 °C, 5 % CO2 for 72h. The old cell media was then discarded, and cells were incubated for 3 h at 37°C, 5% CO2 with 90 µl phenolred-free DMEM-Media and 10 µl of a 5 mg/ml MTT solution per well (#ab146345 Abcam). Afterwards Media was discarded carefully, and Formazan crystals were dissolved on a shaker with 100 µl MTT buffer/well (0.04 N HCI in isopropanol) for 10 minutes. Absorption levels at 570 nm and 650 nm wavelength were measured by Berthold TriStar2 S Multimode Reader and values were normalized to non-treated cells. CC50 was calculated as the half-maximal cytotoxic dose via GraphPad Prism 9 using four-parameter nonlinear regression.
(§2) Absorption levels at 570 nm and 650 nm wavelength were measured and values were normalized to non-treated cells. CC50 was calculated as the half-maximal cytotoxic dose via GraphPad Prism 9 using four-parameter nonlinear regression.
(§3) They now expanded the tests and used MTT assay, which is a procedure used to calculate the redox activity at the mitochondrial membrane of cells and the commercial cell titer glow assay (Promega) to measure cellular ATP. Cell lines tested were the ones used for our antiviral assay, i.e. Calu-3, Caco-2 and Huh7.5 cells.

[8] = Cell viability via live cell imaging (IncuCyte), Huh7.5; settings: human, huh7.5 cells
Experimental: as §4, §5

[9] = CC50 calculation, MTT assay, Huh7.5; format: cell-based; settings: human, Huh7.5 cells
Experimental: as §1, §2, §3

icSARS-CoV-2-mNG [10] = assay: IC50 calculation with icSARS-CoV-2-mNG in Calu-3 cells (mNG+/Hoechst+ infection rate); settings: ic-SARS-CoV-2-mNG in Calu-3 cells; for Therapeutic range: CC50/IC50 (CTG): CC50 by CTG; for Therapeutic range: CC50/IC50 (IncuCyte): CC50 by IncuCyte; for Therapeutic range: CC50/IC50 (MTT): CC50 by MTT
in vitro [11] = format: cell-based; settings: human
Experimental: The old cell media was then discarded, and cells were washed with PBS. 35 µl DMEM-Media and 35 µl CellTiterGlow® reagent (#G7571, Promega) were added and incubated for 2 minutes on an orbital shaker protected from light. Afterwards plates were incubated for 10 minutes without shaking to stabilize the luminescent signal. 50 µl of the supernatant was transferred to a white 96 well measure plate and measured by Berthold TriStar2 S Multimode Reader. The background signal was determined by the luminescent signal of the positive control subtracted from the values used for analysis. The data was then normalized to the non-treated control. CC50 was calculated as the half-maximal cytotoxic dose via GraphPad Prism 9 using four-parameter nonlinear regression.
Luminescent signals were measured by Berthold TriStar2 S Multimode Reader. The data was then normalized to the non-treated control. CC50 was calculated as the half-maximal cytotoxic dose via GraphPad Prism 9 using four-parameter nonlinear regression.

CaCo2 and Calu3 cells = settings: screening at 50, 10, 2 µM
Calu-3 cells [12] = assay: Toxicity by staining of the nuclei (Hoechst+ cell count) in the icSARS-CoV-2-mNG IC50 experiment; settings: Calu3 cells in the icSARS-CoV-2-mNG IC50 experiment
Huh7.5 cells = assay: CC50 calculation, MTT assay, Huh7.5; format: cell-based; settings: 72h, 4320 min
Experimental: as §1, §2, §3

DENV = settings: against DENV; reported, with a low therapeutic index; cited from earlier work
ZIKA = settings: against ZIKA; reported, with a low therapeutic index; cited from earlier work
[13] = Calu3 and Caco2 cells, 24h pre-treatment, […], 50, 10, 2 µM (Atpenin A5 10, 2, 0.4 µM)

## COc1[nH]c(=O)c(C(=O)[C@@H](C)C[C@H](C)[C@@H](Cl)CCl)c(O)c1OC [Atpenin A5, atpenin A5]
icSARS-CoV-2-mNG [1]; [13]
  SARS-CoV-2 infection of the cell lines (infection rate mNG+/Hoechst+ cells): inhibited SARS-CoV-2 infection of the cell lines in a dose-dependent manner
In vitro [2]
  CC50 at 72 h: > 60 µM
Calu-3 cells [3]; read-out: CC50 (IncuCyte), confluency every 3 hours for 72h, 4320 min
  CC50: > 80 µM
In vitro [4]
  CC50 at 72 h: > 160 µM
[5]; Dengue Virus in Huh7.5 cells, CC50 by CTG
  Therapeutic range: CC50/IC50 (CTG): CTG: 229.5
[5]; Dengue Virus in Huh7.5 cells, CC50 by IncuCyte
  Therapeutic range: CC50/IC50 (IncuCyte): IncuCyte: 240.7
[5]; Dengue Virus in Huh7.5 cells, CC50 by MTT
  Therapeutic range: CC50/IC50 (MTT): MTT: 375.2
[6]
  IC50: 0.27 µM
[7]
  CC50 at 72 h: 1.2 µM
[8]
  CC50 at 72 h: 65 µM
[9]
  CC50 at 72 h: 101 µM
icSARS-CoV-2-mNG [10]
  Therapeutic range: CC50/IC50 (CTG): CTG: 1.72
  Therapeutic range: CC50/IC50 (IncuCyte): IncuCyte: > 320
  Therapeutic range: CC50/IC50 (MTT): MTT: 24
In vitro [11]; Calu-3 cells, 72h, read-out: CC50 (CTG)
  CC50 at 72 h: 0.86 µM
In vitro [11]; Huh7.5 cells, 72h, read-out: CC50 (CTG)
  CC50 at 72 h: 62 µM

## CC(C)Cc1nn(C)c(=O)c2c(SCCCO)n(Cc3cccc4ccccc34)cc12 [SR13800]
CaCo2 and Calu3 cells
  toxicity (cell viability by Hoechst staining of the nucleus): toxic

## [H]/N=C(/N)N/C(=N/[H])NCCc1ccccc1 [Phenformin]
icSARS-CoV-2-mNG [1]
  SARS-CoV-2 infection of the cell lines (infection rate mNG+/Hoechst+ cells): inhibited SARS-CoV-2 infection of the cell lines in a dose-dependent manner
Calu-3 cells [12]
  toxicity (staining of the nuclei, cell count): without any toxicity
Calu-3 cells [3]; human, 72h
  CC50: 1500 µM
[5]; human, huh7.5 cells
  Therapeutic range: CC50/IC50 (CTG): CTG: 109.2
  Therapeutic range: CC50/IC50 (IncuCyte): IncuCyte: 59.9
  Therapeutic range: CC50/IC50 (MTT): MTT: 3.3
Huh7.5 cells
  CC50: 61.2 µM
icSARS-CoV-2-mNG [10]
  Therapeutic range: CC50/IC50 (CTG): CTG: 1306.4
  Therapeutic range: CC50/IC50 (IncuCyte): IncuCyte: 867.1
  Therapeutic range: CC50/IC50 (MTT): MTT: 876.3
In vitro [11]; caco-2
  CC50 at 72 h: > 2 µM
In vitro [11]; calu-3 cells
  CC50 at 72 h: > 2 µM
In vitro [11]; huh7.5 cells
  CC50 at 72 h: > 2 µM

## CN(C)C(=N)N=C(N)N [Metformin]
DENV
  antiviral activity: mM range
ZIKA
  antiviral activity: mM range
Calu-3 cells [12]
  toxicity (staining of the nuclei, cell count): without any cytotoxicity

## O[C@H]1[C@H](O)[C@@H](O)[C@H](O)[C@@H](O)[C@@H]1O [Scyllo-Inositol, Scyllo-inositol]
icSARS-CoV-2-mNG [1]; [13]
  SARS-CoV-2 infection of the cell lines (infection rate mNG+/Hoechst+ cells): did not show any activity
